Test results published in patent US20240269094A1, “Treatment of canine dermatitis and skin irritation” (priority 2023, published 2024).

Tests used:
TRPM8 [1] = target: T1, TRPM8 (Rattus norvegicus, UniProt Q8R455); set-up: EC50; other: Sherkheli, 196/1500; settings: Ref. 4 (Sherkheli et al., 2010); cited from earlier work
TRPM8 [2] = target: T2, TRPM8 (Mus musculus, UniProt Q8R4D5); experiment: TRPM8 in vitro assay, EC50 of cooling agents (published data, Table 5 / FIG. 3); format: cell-based; settings: Behrendt et al., 4.1/44
Source text: (§1) FIG. 3. Median Effective Dose (EC50) of various cooling agents in TRPM8 in vitro assay.
(§2) A receptor assay is a standard tool and can be done quickly. For example, in a 384-plate assay, you can easily test 10 compounds and get dose-response data. For a chemical agonist, an in vitro TRPM8 assay generates an EC50 (median effective concentration). But the quantitative correlation between the EC50 on TRPM8 and cooling sensation is not always clear. That is, the language of receptor identification and potency was “roughly” predictive, but there was considerable uncertainty for each agonist. […] Table 5 summarizes results on TRPM8 EC50 (see FIG. 3). The specific references for each value are: […] The full citations are listed in the References. Leffingwell. Ref. 4 gives the FEMA numbers for each compound.
(§3) FIG. 3. Median Effective Dose (EC50) of various cooling agents in TRPM8 in vitro assay. […] The Ref. No. in Table 5 are to: 1=McKemy et al., 2002; 2=Behrendt et al., 2004; 3=Bodding et al., 2007; 4=Sherkheli et al., 2010; and 5=Johnson et al., 2018.
(§4) TRPM8 EC50 Receptor Assay. […] A receptor assay is a standard tool and can be done quickly. […] But the quantitative correlation between the EC50 on TRPM8 and cooling sensation was vague. […]

TRPM8 [3] = target: T2, TRPM8; settings: Ref. 2 (Behrendt et al., 2004); cited from earlier work
philtrum skin = experiment: Philtrum (skin) bioassay of cooling; format: in vivo, human; settings: 8% wt/vol on philtrum
Description: FIG. 5. The philtrum bioassay. Cooling agents, prepared as a or in solution are applied to the philtrum skin. Cooling intensity is rated on a scale of 0 to 3, with 0=no changes in sensation, 1=a slight feeling of coolness, cold or tingling, 2=a clearcut feeling of coolness of cold, and 3=a robust feeling of coolness of cold. The duration of cooling was recorded until two zeroes were measured 10 min apart.
TRPM8 EC50 Receptor Assay. […] A receptor assay is a standard tool and can be done quickly. For example, in a 384-plate assay, you can easily test 10 compounds and get dose-response data. For a chemical agonist, an in vitro TRPM8 assay generates an EC50 (median effective concentration). But the quantitative correlation between the EC50 on TRPM8 and cooling sensation was vague. That is, the science was “roughly” predictive, but there was considerable uncertainty for each agonist. […] Philtrum (Skin) Assay. For cooling sensations on the skin, it is necessary to test the substance on the skin. Wei proposed the use of the skin on the philtrum as a test site for cooling activity of chemicals (FIG. 5). The test substance is dissolved in a carrier, such as solvent, gel, or ointment and applied to the philtrum, a surface area of […]. The subject records sensations on the philtrum and environs as:
The subject is given a form to record observations and instructions to mark sensations on the philtrum and environs as: 0=no changes in sensation, 1=a slight feeling of coolness, cold, or tingling, 2=a clearcut feeling of coolness or cold, and 3=a robust feeling of coolness and cold.
The intervals for measurements are usually at 5, to 15 min after application, until two successive zeros are obtained. The philtrum application site is the midline groove above the upper lip border and vermilion. The gel is placed on the philtrum with a cotton-tipped applicator up to the nasolabial folds and sometimes, but not deliberately, on the lower nostrils (subnasale). Cold receptors densely innervate the philtrum skin (FIG. 5), second only to the surfaces of the eyeball and anogenitalia. The lips also have a high density of “cold spots.” Hensel et al. mapped the cold spots on the human face (cited in Dhaka et al., 2008). In animals such as the rat the mystacial pad (nose pad with vibrissae) is abundantly labeled with TRPM8-fibers. “Cold Points” linked to single-unit neuronal discharges can be measured in experimental animals. Wei has direct experience in such experiments (Poree et al., 1989).
Dip a cotton-tipped applicator (Puritan Cotton-tipped applicators, or Q-Tips) into a reservoir bottle containing the liquid or semi-liquid (gel) test substance. The composition adhering to the cotton (about 0.1 mL) is put on the skin. The philtrum site is shown in a cartoon. A subject can practice the method in front of a mirror with a high-intensity light source. Results for test on the philtrum are in Table 8 and FIG. 5. See data in FIG. 6. Cooling agents, prepared as an 8% wt./vol. gel, was tested topically on the philtrum skin assay. The duration of cooling was recorded (min on y-axis). The startling activity of FEMA 4557, cooling for ˜3 hr, was unexpected and surprising. FEMA 3784 is also known as Cool 10 or menthoxypropanediol. […]

TRPM8 [4] = target: T1, TRPM8; experiment: TRPM8 in vitro assay, EC50 of cooling agents (published data, Table 5 / FIG. 3); format: cell-based; set-up: EC50; other: Sherkheli, 196/1500; settings: Sherkheli, 196/1500
Source text: as §1, §2, §3, §4

TRPM8 [5] = target: T3, TRPM8 (Homo sapiens, UniProt Q7Z2W7); experiment: as above; format: cell-based; set-up: EC50; other: Johnson, 2.2/2.2; settings: Johnson, 2.2/2.2
Source text: as §1, §2, §3, §4

tongue = experiment: Oral cavity screen: 15 mg of crystals on the dorsal surface of the tongue; format: in vivo, human
Description: In this discovery, sensory activity in the oral cavity was the first screen. The goal was to identify candidates producing unusual sensations. Test agents, prepared as 15 mg of white crystals, were placed on the dorsal surface of the tongue. The chemical structures and identifying characteristics are in Table 1. […] Related cooling agents were not freezing cold, except for WS-23.

TRPM8 [6] = target: T3, TRPM8; set-up: EC50; other: Johnson, 2.2/2.2; settings: Ref. 5 (Johnson et al., 2018); cited from earlier work
oral cavity = settings: 100 ppm in 5% sucrose; scale of 0 to 9 units; Johnson, 2018; cited from earlier work

T2 sequence (Q8R4D5 whole entry): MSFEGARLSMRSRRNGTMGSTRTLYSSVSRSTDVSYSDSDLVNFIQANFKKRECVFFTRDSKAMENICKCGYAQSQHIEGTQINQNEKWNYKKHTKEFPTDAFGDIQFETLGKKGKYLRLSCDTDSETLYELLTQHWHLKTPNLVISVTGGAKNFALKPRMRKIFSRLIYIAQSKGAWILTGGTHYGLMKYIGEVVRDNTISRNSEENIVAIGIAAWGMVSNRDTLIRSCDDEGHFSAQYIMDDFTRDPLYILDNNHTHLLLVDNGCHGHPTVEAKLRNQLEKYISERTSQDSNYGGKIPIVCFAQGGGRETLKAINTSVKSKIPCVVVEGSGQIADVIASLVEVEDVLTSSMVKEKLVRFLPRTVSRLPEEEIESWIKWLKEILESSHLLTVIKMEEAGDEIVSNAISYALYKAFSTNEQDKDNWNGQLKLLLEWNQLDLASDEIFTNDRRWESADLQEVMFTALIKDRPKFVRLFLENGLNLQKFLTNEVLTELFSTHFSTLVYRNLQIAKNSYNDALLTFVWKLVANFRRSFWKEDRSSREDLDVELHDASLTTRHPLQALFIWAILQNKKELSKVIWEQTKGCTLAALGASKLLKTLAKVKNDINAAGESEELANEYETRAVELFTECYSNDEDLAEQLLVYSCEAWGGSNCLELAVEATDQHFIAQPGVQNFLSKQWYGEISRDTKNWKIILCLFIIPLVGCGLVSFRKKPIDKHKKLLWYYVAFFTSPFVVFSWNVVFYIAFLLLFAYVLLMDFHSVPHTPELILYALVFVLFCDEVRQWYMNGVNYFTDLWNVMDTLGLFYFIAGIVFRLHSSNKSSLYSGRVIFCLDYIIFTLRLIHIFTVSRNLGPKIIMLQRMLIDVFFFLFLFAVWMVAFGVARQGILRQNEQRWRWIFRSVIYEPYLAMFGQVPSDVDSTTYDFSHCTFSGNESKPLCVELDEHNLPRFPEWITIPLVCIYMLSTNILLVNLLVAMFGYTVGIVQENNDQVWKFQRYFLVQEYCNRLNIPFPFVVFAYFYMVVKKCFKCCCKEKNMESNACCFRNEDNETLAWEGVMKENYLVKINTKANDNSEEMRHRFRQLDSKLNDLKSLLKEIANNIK

potency relative to menthol (TRPM8 EC50 ratio) (TRPM8 [2]): 0.09 | potency relative to menthol (TRPM8 EC50 ratio) (TRPM8 [4]): 0.13 | potency relative to menthol (TRPM8 EC50 ratio) (TRPM8 [5]): 1
SMILES: CNC(=O)C(C)(C(C)C)C(C)C [WS-23]
EC50 (TRPM8 [1]): 1500 µM | EC50 (TRPM8 [3]): 44 µM | Duration of cooling (philtrum skin): 25 ± 3 min | Effects of 15 mg on tongue: duration (tongue): ~18 min | Effects of 15 mg on tongue: sensation (tongue): painful cold in throat | EC50 (TRPM8 [6]): 2.2 µM | Cooling Intensity Oral Cavity Scaled (oral cavity): 2.25
